Source: patent US20050107386A1, “Methods of treating diseases and disorders by targeting multiple kinases” (priority 2003, published 2005)

How the values were obtained:
[1] = biological target: Syk(h) (Homo sapiens, UniProt P43405); experiment: Syk(h) kinase assay; assay type: biochemical; settings: 3 μM; percent of control kinase activity
Description: (§1) Six compounds (presumptive single agents) were tested against a panel of 50 kinases. The results are presented in Table 2; numbers for each kinase indicate the percent of control kinase activity in the presence of a 3μM concentration of the indicated agent.
(§2) Agents that target two or more different kinases are useful in the methods of the invention as described elsewhere herein. Such compounds may be identified, and their effect on certain kinases may be identified, using the assays briefly described below in Examples 4-83. Each of these assays was carried out as described in Davies et al., Biochem. J., 351:95-105 (2000). All assays were carried out at 10 μM ATP unless otherwise noted.
(§3) In a final reaction volume of 25 μl, Syk (h) (5-10 mU) is incubated with 50 mM Tris pH 7.5, 0.1 mM EGTA, 0.1 mM NaVanadate, 0.1% β-mercaptoethanol, 0.1 mg/ml poly(Glu, Tyr) 4:1, 10 mM MgAcetate and [γ-^33P-ATP] (specific activity approx. 500 cpm/pmol, concentration as required). The reaction is initiated by the addition of Mg^2+ [γ-^33P-ATP]. After incubation for 40 minutes at room temperature, the reaction is stopped by the addition of 5 μl of a 3% phosphoric acid solution. 10 μl of the reaction is then spotted onto a Filtermat A and washed three times for 5 minutes in 75 mM phosphoric acid and once in methanol prior to drying and scintillation counting.

[2] = biological target: Rsk1(h) (Homo sapiens, UniProt Q15418); experiment: Rsk1(h) kinase assay; assay type: biochemical; settings: for Inhibitory activity (% of control), Rsk1(h): 3 μM, percent of control kinase activity
[3] = biological target: CDK6/cyclinD3(h) (Homo sapiens, UniProt Q00534); experiment: CDK6/cyclinD3(h) kinase assay; assay type: biochemical; settings: 3 μM; percent of control kinase activity
Description: as §1, §2
In a final reaction volume of 25 μl, CDK6/cyclinD3 (h) (5-10 mU) is incubated with 8 mM MOPS pH 7.0, 0.2 mM EDTA, 0.1 mg/ml histone H1, 10 mM MgAcetate and [γ-33p-ATP] (specific activity approx. 500 cpm/pmol, concentration as required). The reaction is initiated by the addition of Mg^2+ [γ-33P-ATP]. After incubation for 40 minutes at room temperature, the reaction is stopped by the addition of 5 μl of a 3% phosphoric acid solution. 10 μl of the reaction is then spotted onto a P30 filtermat and washed three times for 5 minutes in 75 mM phosphoric acid and once in methanol prior to drying and scintillation counting.

[4] = tested on: CaMKII(r); experiment: CaMKII(r) kinase assay; assay type: biochemical, rat; settings: 3 μM; percent of control kinase activity
Description: as §1, §2
(§4) In a final reaction volume of 25 μl, CaMKII (r) (5-10 mU) is incubated with 40 mM Hepes pH 7.4, 5 mM CaCl2, 30 μg/ml calmodulin, 30 μM […] (SEQ ID NO:11), 10 mM MgAcetate and [γ-^33P-ATP] (specific activity approx. 500 cpm/pmol, concentration as required). The reaction is initiated by the addition of Mg^2+ [γ-^33P-ATP]. After incubation for 40 minutes at room temperature, the reaction is stopped by the addition of 5 μl of a 3% phosphoric acid solution. 10 μl of the reaction is then spotted onto a P30 filtermat and washed three times for 5 minutes in 75 mM phosphoric acid and once in methanol prior to drying and scintillation counting.

[5] = biological target: CaMKIV(h) (Homo sapiens, UniProt Q16566); experiment: CaMKIV(h) kinase assay; assay type: biochemical; settings: 3 μM; percent of control kinase activity
Description: as §1, §2
as §4, with “CaMKIV (h)” for “CaMKII (r)”

[6] = tested on: c-RAF(h); experiment: c-RAF(h) kinase assay; assay type: biochemical, human; settings: 3 μM; percent of control kinase activity
Description: as §1, §2
as §3, with “μl, c-RAF” for “μl, Syk”, “with 25” for “with 50”, “7.5, 0.02” for “7.5, 0.1”, “EGTA, 0.66” for “EGTA, 0.1 mM NaVanadate, 0.1% β-mercaptoethanol, 0.1”, “mg/ml myelin basic protein,” for “mg/ml poly(Glu, Tyr) 4:1,”, “a P30 filtermat” for “a Filtermat A”

[7] = biological target: GSK3α(h) (Homo sapiens, UniProt P49840); experiment: GSK3α(h) kinase assay; assay type: biochemical; settings: 3 μM; percent of control kinase activity
Description: as §1, §2

Sequence of GSK3α(h) (P49840 whole entry): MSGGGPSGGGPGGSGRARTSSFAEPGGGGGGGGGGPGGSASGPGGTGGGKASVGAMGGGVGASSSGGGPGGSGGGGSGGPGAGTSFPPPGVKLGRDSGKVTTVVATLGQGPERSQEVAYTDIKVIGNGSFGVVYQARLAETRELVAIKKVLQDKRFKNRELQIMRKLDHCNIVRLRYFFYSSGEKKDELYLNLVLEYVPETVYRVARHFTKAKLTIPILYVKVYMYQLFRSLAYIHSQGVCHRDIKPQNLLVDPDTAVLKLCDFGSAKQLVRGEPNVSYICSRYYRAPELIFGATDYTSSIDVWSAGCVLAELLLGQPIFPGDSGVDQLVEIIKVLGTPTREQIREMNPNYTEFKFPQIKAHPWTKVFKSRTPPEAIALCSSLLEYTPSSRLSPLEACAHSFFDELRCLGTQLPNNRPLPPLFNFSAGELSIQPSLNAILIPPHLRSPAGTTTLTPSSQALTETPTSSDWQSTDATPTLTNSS
Sequence of Rsk1(h) (Q15418 whole entry): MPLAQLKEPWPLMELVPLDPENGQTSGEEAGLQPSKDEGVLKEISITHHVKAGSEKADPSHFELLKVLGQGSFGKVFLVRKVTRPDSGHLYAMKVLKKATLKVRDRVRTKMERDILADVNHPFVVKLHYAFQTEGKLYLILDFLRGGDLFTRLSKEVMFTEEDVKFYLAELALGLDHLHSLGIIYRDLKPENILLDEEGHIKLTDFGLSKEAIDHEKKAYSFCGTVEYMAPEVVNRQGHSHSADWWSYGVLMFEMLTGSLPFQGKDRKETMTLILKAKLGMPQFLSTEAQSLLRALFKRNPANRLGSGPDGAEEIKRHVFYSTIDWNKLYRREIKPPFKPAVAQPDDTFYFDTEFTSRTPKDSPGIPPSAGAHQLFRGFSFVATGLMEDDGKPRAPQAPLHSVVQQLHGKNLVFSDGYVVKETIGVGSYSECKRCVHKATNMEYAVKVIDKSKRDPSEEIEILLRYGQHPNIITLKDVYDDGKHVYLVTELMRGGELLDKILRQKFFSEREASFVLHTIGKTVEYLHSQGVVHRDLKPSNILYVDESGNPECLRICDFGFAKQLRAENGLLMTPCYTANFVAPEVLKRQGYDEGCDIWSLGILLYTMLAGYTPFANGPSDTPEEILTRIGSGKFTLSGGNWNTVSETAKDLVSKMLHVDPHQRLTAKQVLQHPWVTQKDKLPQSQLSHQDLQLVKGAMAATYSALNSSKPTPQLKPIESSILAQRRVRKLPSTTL
Sequence of CDK6/cyclinD3(h) (Q00534 whole entry): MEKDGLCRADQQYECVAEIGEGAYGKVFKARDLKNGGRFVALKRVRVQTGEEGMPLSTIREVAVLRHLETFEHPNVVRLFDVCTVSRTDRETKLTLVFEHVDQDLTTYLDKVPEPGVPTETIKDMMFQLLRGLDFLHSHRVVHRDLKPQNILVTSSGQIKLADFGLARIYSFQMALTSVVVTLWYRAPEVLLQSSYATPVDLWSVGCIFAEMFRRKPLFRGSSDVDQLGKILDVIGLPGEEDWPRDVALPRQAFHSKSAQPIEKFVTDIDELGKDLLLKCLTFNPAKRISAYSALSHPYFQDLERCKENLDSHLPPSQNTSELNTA
Sequence of CDK6/cyclinD3(h) (P30281 whole entry partner): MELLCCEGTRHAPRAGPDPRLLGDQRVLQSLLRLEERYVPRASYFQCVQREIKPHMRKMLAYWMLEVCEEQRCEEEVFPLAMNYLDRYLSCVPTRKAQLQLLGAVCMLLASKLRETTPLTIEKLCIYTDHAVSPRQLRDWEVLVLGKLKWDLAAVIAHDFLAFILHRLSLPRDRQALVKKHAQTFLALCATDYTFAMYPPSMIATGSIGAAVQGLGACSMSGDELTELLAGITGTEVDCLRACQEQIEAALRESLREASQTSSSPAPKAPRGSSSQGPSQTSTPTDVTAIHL

Inhibitory activity (% of control), Syk(h) [1] | Inhibitory activity (% of control), Rsk1(h) [2] | Inhibitory activity (% of control), CDK6/cyclinD3(h) [3] | Inhibitory activity (% of control), CaMKII(r) [4] | Inhibitory activity (% of control), CaMKIV(h) [5] | Inhibitory activity (% of control), c-RAF(h) [6] | Inhibitory activity (% of control), GSK3α(h) [7] | inhibitory activity against Rsk1, in words ([2]; summary of Table 2) | Structure (SMILES)
14 % of control | 3 % of control | 59 % of control | 26 % of control | 60 % of control | 96 % of control | 38 % of control | – | CC(C)Cc1nc(-c2ccc3[nH]nc(-c4ccc5cc(OCCN6CCCC6)ccc5c4)c3c2)n[nH]1 [CC002, 5-(5-Isobutyl-1H-[1,2,4]Triazol-3-yl)-3-[6-(2-Pyrrolidin-1-yl-Ethoxy)-Naphthalen-2-yl]-1H-Indazole]
47 % of control | 29 % of control | 80 % of control | 52 % of control | 80 % of control | 85 % of control | 65 % of control | good inhibitory activity | CC(C)(C)Cc1nc(-c2ccc3[nH]nc(-c4ccc5cc(OCc6ccccn6)ccc5c4)c3c2)n[nH]1 [CC004, 5-[5-(2,2-Dimethyl-propyl)-1H-[1,2,4]triazol-3-yl]-3-[6-(pyridine-2-ylmethoxy)-naphthalen-2-yl]-1H-indazole]
15 % of control | 2 % of control | 29 % of control | 4 % of control | 22 % of control | 100 % of control | 35 % of control | – | CCN1CCC[C@H]1COc1ccc2cc(-c3n[nH]c4ccc(-c5nc(CC(C)(C)C)n[nH]5)cc34)ccc2c1 [CC005, 2-[((2s)-1-ethylpyrrolidin-2-yl)methoxy]-6-{5-[3-(2,2-Dimethylpropyl)(1H-1,2,4,-triazol-5-yl)](1H-indazol-3-yl)}naphthalene]
46 % of control | 43 % of control | 63 % of control | 82 % of control | 95 % of control | 99 % of control | 38 % of control | – | Fc1ccc(-c2n[nH]c3ccc(-c4n[nH]c(C5CCCC5)n4)cc23)cc1 [CC006, 5-(5-Cyclopentyl-1H-[1,2,4]triazol-3-yl)-3-(4-fluoro-phenyl)-1H-indazole, reference compound]
51 % of control | 51 % of control | 87 % of control | 68 % of control | 86 % of control | 92 % of control | 18 % of control | – | O=C(NC1CCCC1)c1cccc(-c2n[nH]c3ccc(-c4nc[nH]n4)cc23)c1 [CC007, 3-(5-(1H-1,2,4-triazol-3-yl)(1H-indazol-3-yl))phenyl-N-cyclopentylcarboxamide, reference compound]

Structure (SMILES) | Inhibitory activity (% of control), Syk(h) [1] | Inhibitory activity (% of control), Rsk1(h) [2] | Inhibitory activity (% of control), CDK6/cyclinD3(h) [3] | Inhibitory activity (% of control), CaMKII(r) [4] | Inhibitory activity (% of control), CaMKIV(h) [5] | Inhibitory activity (% of control), c-RAF(h) [6] | Inhibitory activity (% of control), GSK3α(h) [7] | inhibitory activity against Rsk1, in words ([2]; summary of Table 2)
COc1ccc2cc(-c3n[nH]c4ccc(-c5n[nH]c(CN6CCOCC6)n5)cc34)ccc2c1 [CC001, 3-(6-Methoxynaphthalen-2-yl)-5-(5-Morpholin-4-Ylmethyl-1H-[1,2,4]Triazol-3-yl)-1H-Indazole] | 26 % of control | 4 % of control | 82 % of control | 64 % of control | 82 % of control | 99 % of control | 15 % of control | –
